Measurements from the supplement of paper PMC11208160.

Experiment: recombinant UMI read abundance after kanamycin selection (control-corrected) (log10(CPM+1)); higher = more efficient recombination; extreme values may be limits of the assay; sequences stand for … in AGTGCAGAGAAAATCGGCCAGTTTTCTCTGCCTGCAGTCCGCATGCCGTGGGACCCCTTGGGTTCTAACCTGTTGCCTAGATTTATGCAGCGGACTGCCTTTCTCCCAAAGTGATAAACCGG…AGGTTGGTTTCACT; site = the 11-nt donor
Procedure, shortened: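 Sequenced counts of recombinant UMIs were turned into CPM, averaged across replicates and scaled with control-derived factors. The reported figure is log10(CPM+1). Those UMIs, each 12 nt long, tagged donor and donor-binding-loop pairs on a plasmid with a promoterless kanamycin gene, screened as a pool in Escherichia coli with IPTG (0.07 mM) plus kanamycin or without selection.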
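Note: IS621 bridge recombinase in Escherichia coli cells against a fixed T5 target plasmid.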

TCTGTGGCATGGACCGGTTTTCCCGGTAATCCGTATTTGAC (site TCTGTGGCTGT)
recombinant UMI read abundance (log10): 0

TCTTCGACATGGACCGGTTTTCCCGGTAATCCGTATTTGAG (site TCTTCGACTCT)
recombinant UMI read abundance (log10): 0.0148

TCTTCTTCATGGACCGGTTTTCCCGGTAATCCGTATTTGAA (site TCTTCTTCTTT)
recombinant UMI read abundance (log10): 0.00225

TGAAAGGCATGGACCGGTTTTCCCGGTAATCCGTATTTGCT (site AGAAAGGCTAG)
recombinant UMI read abundance (log10): 0.855

TGAAAGGCATGGACCGGTTTTCCCGGTAATCCGTATTTGCT (site CGAAAGGCTAG)
recombinant UMI read abundance (log10): 0.708

TGAAAGGCATGGACCGGTTTTCCCGGTAATCCGTATTTGCT (site GGAAAGGCTAG)
recombinant UMI read abundance (log10): 0

TGAAAGGCATGGACCGGTTTTCCCGGTAATCCGTATTTGCT (site TGAAAGGCTAG)
recombinant UMI read abundance (log10): 2.34

TGAAGAACATGGACCGGTTTTCCCGGTAATCCGTATTTGGC (site TGAAGAACTGC)
recombinant UMI read abundance (log10): 2.29

TGAAGTCCATGGACCGGTTTTCCCGGTAATCCGTATTTGTA (site TAAAGTCCTTA)
recombinant UMI read abundance (log10): 0.00928

TGAAGTCCATGGACCGGTTTTCCCGGTAATCCGTATTTGTA (site TCAAGTCCTTA)
recombinant UMI read abundance (log10): 1.44

TGAAGTCCATGGACCGGTTTTCCCGGTAATCCGTATTTGTA (site TGAAGTCCTTA)
recombinant UMI read abundance (log10): 0.591

TGAAGTCCATGGACCGGTTTTCCCGGTAATCCGTATTTGTA (site TTAAGTCCTTA)
recombinant UMI read abundance (log10): 0.888

TGAATACCATGGACCGGTTTTCCCGGTAATCCGTATTTGTC (site TGAATACCTGA)
recombinant UMI read abundance (log10): 0

TGAATTTCATGGACCGGTTTTCCCGGTAATCCGTATTTGAG (site TGAATTTCTCT)
recombinant UMI read abundance (log10): 0.492

TGACCATCATGGACCGGTTTTCCCGGTAATCCGTATTTGCT (site CGATCATCTAG)
recombinant UMI read abundance (log10): 0

TGACCATCATGGACCGGTTTTCCCGGTAATCCGTATTTGCT (site TGACCATCTAG)
recombinant UMI read abundance (log10): 2.24

TGACCGGCATGGACCGGTTTTCCCGGTAATCCGTATTTGGG (site TGACCGGCTCC)
recombinant UMI read abundance (log10): 0.00617

TGACGTACATGGACCGGTTTTCCCGGTAATCCGTATTTGTC (site TGACGTACTGA)
recombinant UMI read abundance (log10): 0.893

TGAGAACCATGGACCGGTTTTCCCGGTAATCCGTATTTGAT (site GACATTGCTCA)
recombinant UMI read abundance (log10): 0.0061

TGAGCCTCATGGACCGGTTTTCCCGGTAATCCGTATTTGAC (site TGAGCCTCTGT)
recombinant UMI read abundance (log10): 2.84

TGAGCTGCATGGACCGGTTTTCCCGGTAATCCGTATTTGTG (site TAAGCTGCTCA)
recombinant UMI read abundance (log10): 0.038

TGAGCTGCATGGACCGGTTTTCCCGGTAATCCGTATTTGTG (site TCAGCTGCTCA)
recombinant UMI read abundance (log10): 0

TGAGCTGCATGGACCGGTTTTCCCGGTAATCCGTATTTGTG (site TGAGCTGCTCA)
recombinant UMI read abundance (log10): 0.639

TGAGCTGCATGGACCGGTTTTCCCGGTAATCCGTATTTGTG (site TTAGCTGCTCA)
recombinant UMI read abundance (log10): 0.0107

TGAGGTCCATGGACCGGTTTTCCCGGTAATCCGTATTTGGA (site TGAGGTCCTTC)
recombinant UMI read abundance (log10): 0.172

TGAGTAGCATGGACCGGTTTTCCCGGTAATCCGTATTTGTA (site TGAGTAGCTTA)
recombinant UMI read abundance (log10): 2.48

TGAGTGGCATGGACCGGTTTTCCCGGTAATCCGTATTTGGT (site AGAGTGGCTAC)
recombinant UMI read abundance (log10): 0.339

TGAGTGGCATGGACCGGTTTTCCCGGTAATCCGTATTTGGT (site CGAGTGGCTAC)
recombinant UMI read abundance (log10): 0.605

TGAGTGGCATGGACCGGTTTTCCCGGTAATCCGTATTTGGT (site GGAGTGGCTAC)
recombinant UMI read abundance (log10): 0.0161

TGAGTGGCATGGACCGGTTTTCCCGGTAATCCGTATTTGGT (site TGAGTGGCTAC)
recombinant UMI read abundance (log10): 0.902

TGAGTTGCATGGACCGGTTTTCCCGGTAATCCGTATTTGCA (site TGAGTTGCTTG)
recombinant UMI read abundance (log10): 1.47

TGATAGCCATGGACCGGTTTTCCCGGTAATCCGTATTTGAG (site TGATAGCCTCT)
recombinant UMI read abundance (log10): 0.0234

TGATAGCCATGGACCGGTTTTCCCGGTAATCCGTATTTGGA (site TGATAGCCTTC)
recombinant UMI read abundance (log10): 0.0136

TGATAGGCATGGACCGGTTTTCCCGGTAATCCGTATTTGGT (site TGATAGGCTAC)
recombinant UMI read abundance (log10): 0.902

TGATAGGCATGGACCGGTTTTCCCGGTAATCCGTATTTGGT (site TGCTAGGCTAC)
recombinant UMI read abundance (log10): 0.0143

TGATAGGCATGGACCGGTTTTCCCGGTAATCCGTATTTGGT (site TGGTAGGCTAC)
recombinant UMI read abundance (log10): 0.0189

TGATAGGCATGGACCGGTTTTCCCGGTAATCCGTATTTGGT (site TGTTAGGCTAC)
recombinant UMI read abundance (log10): 0.02

TGATCATCATGGACCGGTTTTCCCGGTAATCCGTATTTGGT (site CGATCATCTAG)
recombinant UMI read abundance (log10): 0

TGATCATCATGGACCGGTTTTCCCGGTAATCCGTATTTGGT (site TGATCATCTAC)
recombinant UMI read abundance (log10): 1.42

TGCAAGTCATGGACCGGTTTTCCCGGTAATCCGTATTTGGC (site TGCAAGTCTGC)
recombinant UMI read abundance (log10): 2.11

TGCACACCATGGACCGGTTTTCCCGGTAATCCGTATTTGAC (site TGAACACCTGT)
recombinant UMI read abundance (log10): 0

TGCACACCATGGACCGGTTTTCCCGGTAATCCGTATTTGAC (site TGCACACCTGT)
recombinant UMI read abundance (log10): 0.51

TGCACACCATGGACCGGTTTTCCCGGTAATCCGTATTTGAC (site TGGACACCTGT)
recombinant UMI read abundance (log10): 0

TGCACACCATGGACCGGTTTTCCCGGTAATCCGTATTTGAC (site TGTACACCTGT)
recombinant UMI read abundance (log10): 0

TGCAGGGCATGGACCGGTTTTCCCGGTAATCCGTATTTGCC (site TGCAGGGCTGG)
recombinant UMI read abundance (log10): 1.82

TGCAGTGCATGGACCGGTTTTCCCGGTAATCCGTATTTGTT (site TGCAGTGCTAA)
recombinant UMI read abundance (log10): 0.416

TGCCCCACATGGACCGGTTTTCCCGGTAATCCGTATTTGAC (site TGCCCCACTGT)
recombinant UMI read abundance (log10): 1.39

TGCCGGCCATGGACCGGTTTTCCCGGTAATCCGTATTTGCC (site TGCCGGCCTGG)
recombinant UMI read abundance (log10): 0

TGCCGGCCATGGACCGGTTTTCCCGGTAATCCGTATTTGGA (site TGCCGGCCTTC)
recombinant UMI read abundance (log10): 0.0137

TGCCTTTCATGGACCGGTTTTCCCGGTAATCCGTATTTGAC (site AGCCTTTCTGT)
recombinant UMI read abundance (log10): 0

TGCCTTTCATGGACCGGTTTTCCCGGTAATCCGTATTTGAC (site CGCCTTTCTGT)
recombinant UMI read abundance (log10): 0

TGCCTTTCATGGACCGGTTTTCCCGGTAATCCGTATTTGAC (site GGCCTTTCTGT)
recombinant UMI read abundance (log10): 0

TGCCTTTCATGGACCGGTTTTCCCGGTAATCCGTATTTGAC (site TGCCTTTCTGT)
recombinant UMI read abundance (log10): 0

TGCGGAACATGGACCGGTTTTCCCGGTAATCCGTATTTGTT (site TGCGGAACTAA)
recombinant UMI read abundance (log10): 0.718

TGCGGCCCATGGACCGGTTTTCCCGGTAATCCGTATTTGCG (site TGCGGCCCTCG)
recombinant UMI read abundance (log10): 0.0374

TGCGGTACATGGACCGGTTTTCCCGGTAATCCGTATTTGAG (site TGCGGTACTCT)
recombinant UMI read abundance (log10): 0.757

TGCGGTCCATGGACCGGTTTTCCCGGTAATCCGTATTTGAA (site TGCGGTCCTTT)
recombinant UMI read abundance (log10): 0
